Measurements: patent publication US20110105389A1 (priority 2009, published 2011)

Columns and labels:
[1] = molecular target: T1, ghrelin receptor (HEK-GHSR1 stable cells) (Homo sapiens, UniProt Q92847); test: Ghrelin receptor inverse agonist assay (HTRF IP-one), Method B4; format: cell-based; conditions: inverse agonist at the ghrelin receptor, Method B4
T1 construct: expressed in transfected cells
From the text: B4. Ghrelin Receptor Inverse Agonist Assay […]
In addition, the following method can be utilized to assay for inverse agonist activity. (Thomsen, W.; et al. Curr. Opin. Biotechnol. 2005, 16, 655-665; Tozawa-Takahashi F; et al., 11th SBS Annual Conference. September 2005, Geneva; Trinquet, E.; Fink, M.; Bazin, H.; et al. Anal. Biochem. 2006, 358, 126-135; Bergsdorf, C.; Kropp-Goerkis, C.; Kaehler, I.; Ketscher, L.; Boerner, U.; Parczyk, K.; Bader, B. Assay Drug Dev. Technol. 2008, 6, 39-53.)
• 1. Remove culture medium from the plate by inversion. • 2. Add 70 μl of compound/well. • 3. Incubate 30 min at 37° C. • 4. Stop the reaction by adding 15 μl of lysis buffer/well. • 5. Add 15 μl of d2/well. • 6. Add 15 μl of Anti-IP1 cryptate/well. • 7. Incubate 1 h at room temp on an orbital shaker at 100 RPM. • 8. Read the fluorescence in a plate reader (Tecan GeniosPro or similar)
The above sequence was performed using the HTRF IP-one kit (CisBio cat#62P1APEC). For the simultaneous assay of multiple test compounds, 96-well plates can be utilized in this assay (white plate with flat-bottom well, Falcon #353296). These were seeded overnight with 100 000 of HEK-GHSR1 stable cells/well. • Wells A1 and A2 of each plate are used as negative control (wells without d2). Compounds are typically tested in replicate at the following concentrations:
Compounds are stored at 10 mM in 100% DMSO.
1st dilution 1/10 in 100% DMSO (1 mM final concentration).
2nd dilution 1/10 in H2O (0.1 mM final concentration).
Other dilutions are performed in a 96-well plate in stimulation buffer.
The results for representative compounds of the invention are provided in the Examples.

[2] = Metabolic stability in human liver microsomes, Method B8; format: in vitro ADME; conditions: human liver microsomes 0.8 mg/mL, 5 μM compound, 37° C.
From the text: B8. Metabolic Stability in Human Liver Microsomes
The liver is the primary site for phase I (oxidation) and phase II (glucuronidation) enzymatic activity responsible for xenobiotic metabolism. Human liver microsomes are used as in vitro screen of metabolic activity for candidate drugs. Similar studies can be run with microsomes from other species, such as those used for in vivo studies, to determine any significant species differences in the stability profile. The aim of this study was to measure the broad-spectrum metabolic stability of representative compounds of the invention. The key aspects of the experimental design are summarized below: • Human liver microsomes (mixed pool of 15 male and female donors) were purchased from In Vitro Technologies (Baltimore, Md.). • Microsomes characterized for phase I (Cyp2A6, 2D6, 2E1, 1A2, 2C19, 3A4, 4A) and phase II (glucuronidation) enzymatic activity. • Assays are performed using a final concentration of 0.8 mg/mL of microsomes in 100 mM potassium phosphate buffer (1.5 mM NADPH, 8 mM MgCl2, pH 7.4, 37° C.). • Compounds are tested in duplicate samples at a single concentration of 5 μM (0.05% DMSO). • Test articles are incubated with the microsomes at 37° C.

[3] = molecular target: T2, human ghrelin receptor (GRLN, growth hormone secretagogue receptor, hGHS-R1a) (Homo sapiens, UniProt Q92847); test: Competitive radioligand binding assay (ghrelin receptor), Method B1; conditions: Ghrelin receptor binding activity, Method B1
T2 construct: purchased PerkinElmer BioSignal #RBHGHSM, lot#1887; host or cells: HEK-293 cells, stably transfected (membranes)
T2 sequence (Q92847 whole entry): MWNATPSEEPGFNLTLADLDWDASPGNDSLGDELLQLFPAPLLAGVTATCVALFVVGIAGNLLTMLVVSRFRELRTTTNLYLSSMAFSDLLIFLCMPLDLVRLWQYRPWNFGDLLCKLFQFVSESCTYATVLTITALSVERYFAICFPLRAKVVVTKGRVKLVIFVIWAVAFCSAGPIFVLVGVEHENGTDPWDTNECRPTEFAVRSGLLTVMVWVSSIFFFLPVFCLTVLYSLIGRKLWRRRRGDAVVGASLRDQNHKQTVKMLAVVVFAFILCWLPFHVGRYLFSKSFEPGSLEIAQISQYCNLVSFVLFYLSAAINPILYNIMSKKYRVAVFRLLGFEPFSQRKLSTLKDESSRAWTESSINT
Method in brief: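 Filtration competition format: bound radioactivity counted after GF/C harvesting and cold 50 mM Tris-HCl washes. Incubation lasted 30 min at room temperature in Hepes pH 7.4 buffer with Ca2+, Mg2+, EDTA and 0.4% BSA (DMSO ≤0.1% final); values from variable-slope non-linear regression.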

[4] = molecular target: T3, GHS-R1a receptor (HEK293 cells expressing GHS-R1a receptor) (Homo sapiens, UniProt Q92847); test: Fluorescence functional assay (ghrelin receptor), Method B2, agonist and antagonist mode; format: cell-based; conditions: functional activity as an antagonist at the ghrelin receptor, Methods B2 and B3
T3 construct: host or cells: HEK293
T3 sequence (Q92847 whole entry): as above
Method in brief: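 Calcium flux read by ImageTrak epifluorescence in HEK293 cells stably expressing GHS-R1a, loaded 1 h at 37 °C with Calcium-3 dye; buffer HBSS/20 mM Hepes, pH 7.4, with probenecid and BSA. Agonists injected after 10 s baseline, read 50 s more; antagonists 3 min. Sigmoidal fits gave EC50 or IC50.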

T1 sequence (Q92847 whole entry): as above

IC50 [1]	HLM, metabolic stability in human liver microsomes [2]	IC50 [3]	Antagonist Activity [4]	SMILES
100 to 500 nM	73.4 μL/min/mg protein	10 to 100 nM		CC(O)[C@H]1C(=O)N[C@H](Cc2c[nH]c3ccccc23)C(=O)N[C@H](C)CCc2ccccc2OCCN[C@@H](C(C)(C)C)C(=O)N1C (some centres unmarked) [Compound 1762]
50 to 100 nM	77.0 μL/min/mg protein	10 to 100 nM		CCC(C)C1NCCOc2ccccc2C=CCNC(=O)C(Cc2ccc(Cl)cc2Cl)NC(=O)C(C(C)O)N(C)C1=O (centres unmarked) [Compound 1761]
	10.4 μL/min/mg protein		B (B = 1-10 nM)	Cc1cccc(C[C@H]2NC(=O)[C@H](C(C)O)N(C)C(=O)[C@H](C(C)C)NCCOc3cc(F)ccc3CC[C@@H](C)NC2=O)c1 (some centres unmarked) [Compound 1451]
100 to 500 nM	85.2 μL/min/mg protein	10 to 100 nM	C (C = 10-100 nM)	CCC(C)C1NCCOc2ccccc2CCCNC(=O)C(Cc2ccc(Cl)cc2)NC(=O)C(C(C)O)N(C)C1=O (centres unmarked) [Compound 1699]
	30.5 μL/min/mg protein		B (B = 1-10 nM)	COc1cccc(C[C@H]2NC(=O)[C@H](C(C)O)N(C)C(=O)[C@H](C(C)C)NCCOc3ccccc3CC[C@@H](C)NC2=O)c1 (some centres unmarked) [Compound 1371]
100 to 500 nM	26.1 μL/min/mg protein	1 to 10 nM	B (B = 1-10 nM)	CCC(C)C1NCCOc2cc(F)ccc2C=CCNC(=O)C(Cc2ccc(Cl)cc2)NC(=O)C(C(C)O)N(C)C1=O (centres unmarked) [Compound 1739]
100 to 500 nM	64.3 μL/min/mg protein	10 to 100 nM		CC[C@@H]1CCc2c(F)cccc2OCCN[C@@H](C(C)C)C(=O)N(C)[C@@H](C(C)O)C(=O)N[C@H](Cc2ccc(F)cc2)C(=O)N1 (some centres unmarked) [Compound 1723]
	35.8 μL/min/mg protein		B (B = 1-10 nM)	CC(C)[C@@H]1NCCOc2ccccc2CC[C@@H](C)NC(=O)[C@@H](Cc2cccc(C#N)c2)NC(=O)[C@H](C(C)O)N(C)C1=O (some centres unmarked) [Compound 1374]
10 to 50 nM	157.4 μL/min/mg protein	10 to 100 nM		CC(O)[C@H]1C(=O)N[C@H](Cc2ccc(Cl)cc2)C(=O)N[C@H](C)CCc2ccccc2OCCN[C@@H](C(C)(C)C)C(=O)N1C (some centres unmarked) [Compound 1742]
	31 μL/min/mg protein		A (A <1 nM)	Cc1cccc(C[C@H]2NC(=O)[C@H](C(C)O)N(C)C(=O)[C@H](C(C)C)NCCOc3ccccc3CC[C@@H](C)NC2=O)c1 (some centres unmarked) [Compound 1373]
100 to 500 nM	28.3 μL/min/mg protein	1 to 10 nM	C (C = 10-100 nM)	CCC(C)C1NCCOc2ccc(F)cc2C=CCNC(=O)C(Cc2ccc(Cl)cc2)NC(=O)C(C(C)O)N(C)C1=O (centres unmarked) [Compound 1740]
50 to 100 nM	34.8 μL/min/mg protein	1 to 10 nM		CC[C@@H]1C#Cc2ccc(F)cc2OCCN[C@@H](C(C)C)C(=O)N(C)[C@@H](C(C)O)C(=O)N[C@H](Cc2cccc(F)c2)C(=O)N1 (some centres unmarked) [Compound 1760]
	32.2 μL/min/mg protein		C (C = 10-100 nM)	CC(C)[C@@H]1NCCOc2c(F)cccc2CCCNC(=O)[C@@H](Cc2ccccc2)NC(=O)[C@H](C(C)O)N(C)C1=O (some centres unmarked) [Compound 1376]
50 to 100 nM	14.1 μL/min/mg protein	1 to 10 nM		CC(C)C1NCCOc2cc(F)ccc2C=CCNC(=O)C(Cc2ccccc2)NC(=O)C(C(C)O)N(C)C1=O (centres unmarked) [Compound 1702]
	46.6 μL/min/mg protein		B (B = 1-10 nM)	CC[C@@H]1CCc2ccccc2OCCN[C@@H](C(C)C)C(=O)N(C)[C@@H](C(C)O)C(=O)N[C@H](Cc2ccccc2)C(=O)N1 (some centres unmarked) [Compound 1393]
	60.8 μL/min/mg protein		A (A <1 nM)	CC(C)[C@@H]1NCCOc2ccccc2CC[C@@H](C)NC(=O)[C@@H](Cc2ccc(F)c(F)c2)NC(=O)[C@H](C(C)O)N(C)C1=O (some centres unmarked) [Compound 1372]
100 to 500 nM	53.7 μL/min/mg protein	1 to 10 nM		CC(C)C1NCCOc2ccccc2C#CCNC(=O)C(Cc2cccc(F)c2)NC(=O)C(C(C)O)N(C)C1=O (centres unmarked) [Compound 1691]
10 to 50 nM	53.2 μL/min/mg protein	1 to 10 nM		CCC(C)C1NCCOc2ccccc2C=CCNC(=O)C(Cc2ccccc2Cl)NC(=O)C(C(C)O)N(C)C1=O (centres unmarked) [Compound 1738]
100 to 500 nM	117.0 μL/min/mg protein	10 to 100 nM		CC(O)[C@H]1C(=O)N[C@H](Cc2c[nH]c3ccccc23)C(=O)N[C@H](C)CCc2ccccc2OCCN[C@@H](C2CC2)C(=O)N1C (some centres unmarked) [Compound 1745]
	14.2 μL/min/mg protein			COc1cccc(C[C@H]2NC(=O)[C@H](C(C)O)N(C)C(=O)[C@H](C(C)C)NCCOc3cc(F)ccc3CC[C@@H](C)NC2=O)c1 (some centres unmarked) [Compound 1473]
50 to 100 nM	83.9 μL/min/mg protein	1 to 10 nM		CCC(C)C1NCCOc2ccccc2C=CCNC(=O)C(Cc2ccccc2C)NC(=O)C(C(C)O)N(C)C1=O (centres unmarked) [Compound 1737]
	42.9 μL/min/mg protein		C (C = 10-100 nM)	CC(C)[C@@H]1NCCOc2cccc(F)c2CCCNC(=O)[C@@H](Cc2ccccc2)NC(=O)[C@H](C(C)O)N(C)C1=O (some centres unmarked) [Compound 1378]
100 to 500 nM	33.5 μL/min/mg protein	10 to 100 nM		CCC(C)C1NCCOc2ccccc2C#CCNC(=O)C(Cc2ccc(Cl)cc2)NC(=O)C(C(C)O)N(C)C1=O (centres unmarked) [Compound 1704]
50 to 100 nM	21.8 μL/min/mg protein	1 to 10 nM		CC(C)C1NCCOc2cc(F)ccc2C=CCNC(=O)C(Cc2ccc(F)cc2)NC(=O)C(C(C)O)N(C)C1=O (centres unmarked) [Compound 1690]
10 to 50 nM	90.4 μL/min/mg protein	1 to 10 nM		CC(C)[C@@H]1NCCOc2cc(F)ccc2CC[C@@H](C)NC(=O)[C@@H](Cc2ccc(Cl)cc2)NC(=O)[C@H](C(C)O)N(C)C1=O (some centres unmarked) [Compound 1758]
100 to 500 nM	66.5 μL/min/mg protein	10 to 100 nM		CC[C@@H]1CCc2c(F)cccc2OCCN[C@@H](C(C)C)C(=O)N(C)[C@@H](C(C)O)C(=O)N[C@H](Cc2c[nH]c3ccccc23)C(=O)N1 (some centres unmarked) [Compound 1725]
